Legend:
[1] = test system: CO2-sensitive ab1C neurons; test: single-sensillum electrophysiology, baseline (spontaneous) activity of ab1C neurons; format: cell-based, Drosophila
Protocol: A number of individual odourants were tested for their ability to inhibit the baseline activity of the neuron using single-sensillum electrophysiology. […] Extracellular single-unit recordings were performed. Odourant stimuli were delivered via Pasteur pipette odour cartridges (see, FIG. 16). Chemicals were of the highest purity available, typically>99% (Sigma-Aldrich). All odourants were diluted in paraffin oil. A controlled volume of air 5 ml/sec was puffed through the odour cartridge containing vapours, and was delivered into a constant humidified airstream of 10 ml/sec that was passed over the fly antenna. […] CO2 stimulus was pulsed through a separate delivery system that delivered controlled pulses (variable 2.5 ml/sec-6.5 ml/sec) into the same humidified airstream, from either a 1%, 5% or 100% tank of CO2 (Airgas). […] Unless mentioned, responses were quantified by subtraction of spontaneous activity from activity during the stimulus. […] Both these compounds are present at electrophysiologically relevant concentrations in Drosophila food sources: 1-hexanol has been detected in various types of fruit including mango, melon, strawberry, passion fruit, muskmelon and banana; 2,3-butanedione is a natural by-product of fermentation by yeast and is thus also present in beer.

[2] = test system: CO2-sensitive ab1C neurons; test: single-sensillum electrophysiology, inhibition of CO2 response of ab1C neurons; format: cell-based, Drosophila; details: for inhibition of CO2 response of ab1C neurons: 0.3% CO2 with varying concentrations of odourant, applied prior to or after CO2 stimulus; for silencing of CO2 neuron beyond the period of application: 2,3-butanedione at concentrations >=10^-1, 1-hexanol at the concentrations tested; for inhibition of CO2 response across tested CO2 concentrations: CO2 0.1% up to ~3%
Description: Representative traces (top) and mean responses (bottom) from single-sensillum electrophysiology of ab1 sensilla in mutant flies; spikes represent activity of the ab1C neuron. a, 3-sec stimulus of odourant overlaid with a 1-sec application of 0.3% CO2. b, 3-sec stimulus of 0.3% CO2 overlaid with a 1-sec application of odourant. PO=paraffin oil, d4on=2,3-butanedione, 6ol=1-hexanol. n=6, error bars=s.e.m. Spikes per second were counted during the 1-sec stimulus period, and spontaneous activity subtracted. (For data in a and b, T-test, *P<0.001, **P<0.005, ***P<0.01, ****P<0.05) c, ab1C responses to indicated concentrations of CO2 in the presence of solvent (PO), 1-hexanol (6ol) or 2,3-butanedione (d4on). Odourants were tested at 10^−1 dilution. Firing rates were counted in consecutive 0.1-sec bins. n=3, error bars=s.e.m.
Bars indicate stimulus periods for 0.3% CO2, and overlays with 1-hexanol (6ol) or 2,3-butanedione (d4on) at the indicated concentrations. b, Recovery of ab1C responsiveness to a 0.5-sec, 0.3% CO2 stimulus applied every 30-sec after initial treatment with 3-sec stimulus of either d4on (10^−1) or paraffin oil (PO). n=5, error bars=s.e.m., (T-test, *P<0.005, **<0.01, ***P<0.05). c, CO2 response inhibition by structurally related compounds. A 3-sec stimulus of 0.3% CO2 was delivered in combination with 1-sec application of indicated odourant (10^−2) as in a. Percent increase or decrease in mean ab1C response was calculated relative to mean response of paraffin oil. n=5. d, Structures of CO2 and the 4 strongest antagonists. e-f, show mean odourant responses. e, Odourants were tested on ab1C neurons in Or83b2 flies at 10^−2 dilution in paraffin oil. Bars represent values after subtraction of mean response to paraffin oil. n=3. f, Odourants at indicated concentrations were tested on ab3A neuron in wild-type (wt) and ΔHalo (AH) mutants that lack Or22a and Or22b. Bars represent values after subtraction of spontaneous activity. n=5, error bars=s.e.m.
FIG. 16 is a schematic diagram of an odour-delivery system to maintain steady concentration of CO2 in binary mixture experiments. Cartridges were made from Pasteur pipettes with pre-filled cotton wool inserts. […] odorant dissolved in paraffin oil (at specific concentrations) was applied to the cotton wool, and a 1.5 ml disposable tip attached to the open end to make the “odour cartridge”. A controlled “humidified air flow” was generated from a compressed air cylinder by bubbling through water, and passed through a glass tube, and released over the recording arena holding the Drosophila. A C-55 stimulus controller (Syntech) was used to generate an additional activated-charcoal filtered continuous air flow of 5 ml/sec which was delivered into the humidified airstream through a “blank cartridge” with the tip placed through a hole in the tube. To generate controlled odourant stimulus the C-55 stimulus controller was used to switch air flow from the “continuous air flow” to “odor stimulus flow” channel. An additional CO2 stimulus was pulsed through a separate system that delivered controlled pulses (variable 2.5 ml/sec-6.5 ml/sec) into the same humidified airstream, from either a 1%, 5% or 100% cylinder of CO2 (Airgas).
Extracellular single-unit recordings were performed. Odourant stimuli were delivered via Pasteur pipette odour cartridges (see, FIG. 16). Chemicals were of the highest purity available, typically>99% (Sigma-Aldrich). All odourants were diluted in paraffin oil. A controlled volume of air 5 ml/sec was puffed through the odour cartridge containing vapours, and was delivered into a constant humidified airstream of 10 ml/sec that was passed over the fly antenna. […] CO2 stimulus was pulsed through a separate delivery system that delivered controlled pulses (variable 2.5 ml/sec-6.5 ml/sec) into the same humidified airstream, from either a 1%, 5% or 100% tank of CO2 (Airgas). […]

| Compound | inhibition of spontaneous activity of ab1C neurons [1] | effect of order of presentation on strength of CO2 response inhibition ([2]; 0.3% CO2) | inhibition of CO2 response of ab1C neurons [2] | silencing of CO2 neuron beyond the period of application [2] | CO2 response at 10 minutes versus neurons not pre-exposed ([2]; after 3-second stimulus of odourant 10^-1, 0.3% CO2) | time until responsiveness to CO2 restored to half-maximal levels ([2]; after 3-second stimulus of odourant 10^-1, 0.5-second 0.3% CO2 every 30 seconds) [min] | inhibition of CO2 response across tested CO2 concentrations ([2]; odourant 10^-1) | silencing of CO2-responsive neurons ([2]; odourant at concentrations >10^-2, 0.3% CO2) | CO2 concentration at which complete inhibition occurs ([2]; odourant 10^-1, lowest concentration tested) [% CO2] |
| --- | --- | --- | --- | --- | --- | --- | --- | --- | --- |
| CC(=O)C(C)=O [2,3-butanedione] | strongly inhibit | of lesser consequence | inhibited CO2 response in a dose-dependent manner | silenced the CO2 neuron well beyond the period of application | significantly lower | ~3 | complete inhibition | silences CO2-responsive neurons completely | – |
| CCCCCCO [1-hexanol] | strongly inhibit | greater if it is presented subsequent to the CO2 stimulus | inhibited CO2 response in a dose-dependent manner | not observed | – | – | significant reduction | – | 0.1 |
